Data published in patent US10308640B2, “1,3-dihydroimidazole-2-thione derivatives for use in the treatment of pulmonary arterial hypertension and lung injury” (BIAL—PORTELA & CA S.A., priority 2012, dated 2019).

Legend:
[1] = tested on: Monocrotaline (MCT) lung injury model of Pulmonary Arterial Hypertension; assay: Survival in the Monocrotaline (MCT) lung injury model of Pulmonary Arterial Hypertension (Kaplan-Meier curves, 28 days); type: in vivo, rat; settings: MCT rats; for survival (survival curve): compared to MCT group
Excerpt: (§1) One of the most-used animal models is the Monocrotaline (MCT) lung injury model of Pulmonary Arterial Hypertension. Administration of MCT, that is metabolized in the liver to the reactive metabolite dehydromonocrotaline, results in a syndrome characterized by acute lung injury, interstitial pulmonary fibrosis, necrotizing pulmonary arteritis, pulmonary hypertension, right ventricular (RV) hypertrophy, myocarditis and hepatic venoocclusive disease.
(§2) The protocol to use is a standard one (Curr. Protoc. Pharmacol. 46:5.56.1-5.56.11(2009) John Wiley & Sons Inc). Rats, of 6-7 weeks old (150-200 g) are administered MCT 60 mg/kg subcutaneously, and the pathology usually develops in the course of initial 3 to 4 weeks with the animals dying within the next 2 weeks (5th-6th week). A decrease of 50% in food and water consumption is thought to be indicative of pathological status severe enough for testing.
Two studies were conducted separately and a combination analysis performed on the two studies. Each study consisted in the scheme represented in FIG. 1.
The experimental design of both studies was the same, with animals randomized in seven groups, five groups of 10 animals each (MCT, MCT+Bos300, MCT+Bos100, MCT+Compound B, MCT+Compound B+Bos100) and 2 groups of 6 animals each (SHAM and SHAM+Compound B).
The experimental details are described in more detail below; briefly, compounds were given to rats mixed with food starting, Compound B (30 mg/kg/day) for groups MCT+Compound B and SHAM+Compound B, bosentan (300 mg/kg/day) for group MCT+Bos300, bosentan (100 mg/kg/day) for group MCT+Bos100, Compound B+bosentan (30+100 mg/kg/day) for group MCT+Compound B+Bos100, and no compound for groups MCT and SHAM. Animals from groups MCT were administered MCT and animals from groups SHAM were administered vehicle. Twenty eight days later, surviving animals were sacrificed, tissues collected and weighed. During the entire experimental period food, water consumption and animal weight were monitored. The ratios organ weight to body weight (BW) were calculated to evaluate organ hypertrophy. The index of RV/LV+S was calculated as an index of RV hypertrophy. […]
Animals were given powdered food for an adaptation period of 3-5 days before treatment start. […] Food, water consumption and animal weight were monitored over the entire duration of the experiment.
Animals were given powdered food for an adaptation period of 3-5 days before treatment start. […] Animal weight, food and water consumption were evaluated twice a week and animals were regularly observed for any disease signs. Mortality was registered and on day 28 surviving animals were sacrificed, selected organs weighed and femurs removed and measured. […]

[2] = tested on: Monocrotaline (MCT) lung injury model of Pulmonary Arterial Hypertension; assay: Cardiac remodelling (organ weight ratios, Fulton index) in the MCT lung injury model of PAH; type: in vivo, rat; settings: compared to MCT group; for right ventricular hypertrophy: 28 days
Excerpt: as §1, §2
The experimental details are described in more detail below; briefly, compounds were given to rats mixed with food starting, Compound B (30 mg/kg/day) for groups MCT+Compound B and SHAM+Compound B, bosentan (300 mg/kg/day) for group MCT+Bos300, bosentan (100 mg/kg/day) for group MCT+Bos100, Compound B+bosentan (30+100 mg/kg/day) for group MCT+Compound B+Bos100, and no compound for groups MCT and SHAM. Animals from groups MCT were administered MCT and animals from groups SHAM were administered vehicle. Twenty eight days later, surviving animals were sacrificed, tissues collected and weighed. During the entire experimental period food, water consumption and animal weight were monitored. The ratios organ weight to body weight (BW) were calculated to evaluate organ hypertrophy. The index of RV/LV+S was calculated as an index of RV hypertrophy. In each study an n=10 animals was used for each MCT treatment group, and an n=6 was used for the groups not given MCT. The animals from MCT+Bos300 group from Study 1 were not considered for the combined survival analysis since these unexpectedly presented a higher mortality effect as compared to the MCT group. The surviving animals from this group were nevertheless considered for the cardiac remodelling analysis.
All data is expressed as mean±sem (Standard Error of the Mean) unless otherwise indicated. Differences between treatment groups were analysed by one-way ANOVA and post-hoc Newman-Keuls multiple comparison test. P<0.05 was considered statistically significant.
On day 28 surviving animals were sacrificed and the following tissues/organs collected and weighed: liver, kidney, lung, heart and spleen. Femurs were removed and measured. Heart was dissected into right ventricle, left ventricle+septum and these were also weighed. The ratio organ to body weight (BW) was calculated as well as the ratio organ weight to femur length. The index of RV/LV+S is an index of RV hypertrophy. Catecholamines were evaluated only on right ventricle and left ventricle+septum.
Whole spleen, whole liver, left kidney and lungs were removed, cleaned and weighed. Heart was removed, cleaned from atria and vascular tissue and weighed. Right ventricle was then dissected from the rest of the heart (left ventricle +septum) and both were weighed and put in tubes containing 0.2 M PCA. Femurs were removed, cleaned and length measured with a calliper.
The ratios organ weight to body weight and organ weight to femur length were calculated as well as the ratio right ventricular weight to left ventricular+septum weight.
Organs weighed were: liver, kidney, lung, heart and spleen. Heart was dissected into right ventricle, left ventricle+septum and these were also weighed. The ratio organ to body weight (BW) was calculated as well as the ratio organ weight to femur length. The index of RV/LV+S is an index of RV hypertrophy.
Whole spleen, whole liver, both kidneys and lungs were removed, cleaned and weighed. Heart was removed, cleaned from atria and vascular tissue and weighed. […]

[3] = Compound B alone 30 mg/kg/day, 28 days after MCT
[4] = Bosentan 300 mg/kg/day, 28 days after MCT

Row | Compound | survival (survival curve) ([1]; Compound B 30 mg/kg/day in food) | survival rates compared to the use of bosentan alone ([1]; Compound B alone 30 mg/kg/day) | right ventricular hypertrophy ([2]; Compound B 30 mg/kg/day) | Fulton Index (RV/LV+S) [2, 3] | heart weight over bodyweight (BW) [2, 3] | right ventricle (RV) weight over bodyweight (BW) [2, 3] | survival (survival curve) ([1]; bosentan 100 mg/kg/day in food) | survival (survival curve) ([1]; bosentan 300 mg/kg/day in food) | Fulton Index (RV/LV+S) [2, 4] | right ventricle (RV) weight over bodyweight (BW) [2, 4] | right ventricular hypertrophy ([2]; bosentan 100 mg/kg/day (MCT+Bos100)) | right ventricular hypertrophy ([2]; bosentan 300 mg/kg/day (MCT+Bos300))
1 | Fc1cc(F)c2c(c1)C[C@@H](n1c(CCNCc3ccccc3)c[nH]c1=S)CO2 [Compound B, (R)-5-(2-(benzylamino)ethyl)-1-(6,8-difluorochroman-3-yl)-1H-imidazole-2(3H)-thione] | slight increase in survival | greater survival rates | significant decreased | significantly decreased | significantly decreased | significantly decreased |  |  |  |  |  | 
2 | COc1ccccc1Oc1c(NS(=O)(=O)c2ccc(C(C)(C)C)cc2)nc(-c2ncccn2)nc1OCCO [bosentan, Bosentan] |  |  |  |  |  |  | No clear benefit | No clear benefit | significantly decreased | significantly decreased | significant decreased | marked and statistically significant decrease
